Laboratory results reported in patent publication US9212167B2, “Mitochondrial targeted stimulators of apoptosis” (The Rockefeller University, priority 2011, dated 2015).

Tests used:
Type in all cases: cell-based
[1] = tested on: HeLa cells; test: Alamar Blue cell viability, HeLa cells; details: ten-point dose response, up to 50 μM, FIG. 1
Description: (§1) The compound described above as Compound 15 was tested for its effect on the viability of cells using Alamar Blue staining. This reagent takes advantage of the conversion by healthy cells of a non-fluorescent molecule, resazurin, to the brightly red-fluorescent resorufin. The assay was performed in 384 well plate format, and the fluorescence (560 nm Ex/590 nm Em) was detected and quantified using a Perkin-Elmer Envision plate reader. Four samples were compared. Samples were the compound identified as 2PA in paragraph [0014] (i.e. just “A” without “L” or “B”), a dimer of 2PA (i.e. A-L-A, wherein L is C6H4):
(§2) PK11195 alone and Compound 15. Ten-point dose responses were performed in both HeLa and T98G cells to determine the concentration at which each compound was effective.

[2] = tested on: T98G cells; test: Alamar Blue cell viability, T98G cells; details: ten-point dose response, up to 50 μM, FIG. 2
Description: as §1, §2

[3] = tested on: HeLa cells; test: Count of apoptotic HeLa cells with and without pan-caspase inhibitor ZVAD-FMK; details: 40 μM, 3 or 6 hours
Description: To verify the induction of apoptosis by Compound 15, HeLa cells were treated with 40 μM of the compound and incubated for 3 or 6 hours in the presence and absence of pan-caspase inhibitor ZVAD-FMK. Apoptotic cells were counted at the indicated times in each condition.

Compound | cell killing (percent survival as a function of concentration) [1] | cell killing (percent survival as a function of concentration) [2] | induction of apoptosis (apoptotic cells counted) ([3]; absence of ZVAD-FMK) | induction of apoptosis (apoptotic cells counted) with caspase inhibitor ([3]; presence of pan-caspase inhibitor ZVAD-FMK)
CN[C@@H](C)C(=O)N[C@H](C(=O)N1CCC[C@H]1Cn1nnnc1Sc1ccccc1)C(C)OCc1cn(CCOCCOCCOCCNC(=O)c2cc3ccccc3c(-c3ccccc3Cl)n2)nn1 (stereo partly shown) [Compound 15] | kills both HeLa and T98G cells effectively | kills both HeLa and T98G cells effectively | can induce cell death | the caspase inhibitor can prevent this induction of cell death
CCC(C)N(C)C(=O)c1cc2ccccc2c(-c2ccccc2Cl)n1 (stereo not shown) [PK11195] | do not kill at any concentration | do not kill at any concentration |  | 
CNC(C)C(=O)NC(C(=O)N1CCCC1Cn1nnnc1Sc1ccccc1)C(C)OCC#CC#CCOC(C)C(NC(=O)C(C)NC)C(=O)N1CCCC1Cn1nnnc1Sc1ccccc1 (stereo not shown) [dimer] | do not kill at any concentration | do not kill at any concentration |  | 
C#CCOC(C)C(NC(=O)C(C)NC)C(=O)N1CCCC1Cn1nnnc1Sc1ccccc1 (stereo not shown) [monomer] | do not kill at any concentration | do not kill at any concentration |  | 
